Where “and” joins values, the source holds several entries; their conditions need not be identical. Equal entries are not always repeated. Calls of active or inactive are those of the source.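 Rule for the calls: active = compounds giving half or more protection of infected cells from virus-caused growth loss, again on retest; inactive = the rest.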 Where a SMILES comes first, the peptide text is derived from it. The star is where a group is joined. Cbz = O=C(OCc1ccccc1)*
System: CEM cells HIV-1 protection, formazan growth assay
Experiment: NCI AIDS Antiviral Assay
Conditions: for IC50: measured here: growth of uninfected CEM cells
How it was run: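 Soluble formazan readout of cell growth; CEM cells ± HIV-1; 5 drug concs. ≥50% protection → retest; ≥50% again = moderately active; reproducible 100% = confirmed active.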

| SMILES | EC50 | IC50 | outcome |
| --- | --- | --- | --- |
| O=C(c1ccc(Cl)cc1Cl)C1[C@H]2C(=O)N(c3ccc(Cc4ccc(N5C(=O)[C@@H]6ON(c7ccccc7)C(C(=O)c7ccc(Cl)cc7Cl)[C@@H]6C5=O)cc4)cc3)C(=O)[C@H]2ON1c1ccccc1 (some centres not stated) | > 38 µM | > 38 µM |  |
| CC(CCNC(=O)c1ccccc1)(CCNC(=O)c1ccccc1)[N+](=O)[O-] | > 200 µM | > 200 µM |  |
| C[C@]12CCC(=O)C=C1CC[C@@H]1C2CC[C@@]2(C)C1CC[C@@H]2OC(=O)C12OC1CCC2=O (some centres not stated) | > 200 µM | 10.7 µM |  |
| Cc1ccccc1NC(=O)O/N=C(\Cl)C(C)C | > 20 µM | 3.16 µM |  |
| CC(C)Oc1c(C2(c3ccccc3O)SCCCS2)c(=O)c1=O | > 200 µM | 112 µM |  |
| Cc1cc(NC(=O)c2ccc(N)cc2)ccc1N=Nc1ccc2c(O)c(N=Nc3ccc4cc(S(=O)(=O)O)ccc4c3)c(S(=O)(=O)O)cc2c1 | 25.1 µM | > 100 µM |  |
| C=C1C(=O)OC2CC(C)C(/C=C/C(C)=O)=CCC12 (configuration not stated) | > 363 µM | 56.2 µM |  |
| COc1ccc2c(c1)OC1(OCCO1)[C@@H]1C2CC[C@@]2(C)C1CCC21OCCO1 (some centres not stated) | > 18.6 µM | > 18.6 µM |  |
| O=[N+]([O-])c1ccc(Cl)c(SSc2cc([N+](=O)[O-])ccc2Cl)c1 | > 39.8 µM | 14.1 µM |  |
| Cc1ccc(NC(=O)COC(=O)c2cccc3c(=O)c4ccccc4[nH]c23)cc1 |  |  | inactive |
| COc1cc(OC)c(C2c3cc4c(cc3OC(N3CCCC3)C2C)OCO4)c(OC)c1 (configuration not stated) | > 200 µM | 4.37 µM |  |
| CCOC(=O)C1=C(C)NC2=C(C(=O)N(c3ccccc3)C2c2ccccc2)C1c1ccccc1 (configuration not stated) | > 41.7 µM | > 41.7 µM |  |
| CC(=O)c1c2c(cc3c1CC1(Cc4cc5c(cc4C1)C(=O)CCC5)C3)CCCC2 (configuration not stated) | > 200 µM | 3.63 µM |  |
| Cc1ccc(NC(=O)c2cc(S(=O)(=O)Nc3n[nH]c(=O)n3-c3ccccc3)c(S)cc2Cl)cc1 | 42.7 µM | > 200 µM |  |
| O=C(/C=C/c1ccc2c(c1)OCO2)c1ccccc1 | > 200 µM | 7.08 µM and 11.2 µM |  |
| CCCc1cc(=O)oc2c3c(c4c(c12)OC(C)(C)CC4)O[C@H](C)C(C)C3O (some centres not stated) | > 200 µM | 25.1 µM |  |
| COc1ccc(C2=Cc3nc2c(-c2ccccc2)c2ccc([nH]2)c(-c2ccccc2)c2nc(c(-c4ccccc4)c4ccc([nH]4)c3-c3ccccc3)C=C2)cc1 | > 100 µM | > 100 µM |  |
| C=CCCCC12CCCc3cccc(c31)NC2=S (configuration not stated) | > 200 µM | 14.1 µM |  |
| OCC1CC2CC1C1(C2)OCCO1 (configuration not stated) |  |  | inactive |
| Cc1c(C2(c3cc(Br)c(O)c(Br)c3C)OS(=O)(=O)c3ccccc32)cc(Br)c(O)c1Br |  |  | inactive |
| CCn1c(C)nc2c(N)cccc2c1=O | > 1230 µM | > 1230 µM |  |

| SMILES | EC50 | IC50 | outcome |
| --- | --- | --- | --- |
| O=C1C2=C(C(c3ccccc3)=C1c1ccccc1)c1ccccc1C1(c3ccccc3)C2=C(O)C(c2ccccc2)=C1c1ccccc1 (configuration not stated) |  |  | inactive |
| Cc1ccc(S(=O)(=O)/C(C#N)=C\NC(=S)N=Nc2c(O)[nH]c3ccccc23)cc1 | > 200 µM | > 200 µM |  |
| COc1nc(N)c(NC2OC(CO)C(O)C2O)c(=O)[nH]1 (configuration not stated) | > 200 µM | 112 µM and 126 µM |  |
| O=C1C=CC2OC(c3ccccc3)C(O)C2O1 (configuration not stated) | > 1070 µM | 11.5 µM |  |
| COC(=O)/C=C/c1cnc2c(c1)oc(=O)n2CCc1ccccn1 | > 200 µM | 24 µM |  |
| O=c1[nH]c(Nc2cccc(C(F)(F)F)c2)nc2nc[nH]c12 | > 200 µM | 97.7 µM |  |
| c1ccc(SCN2CCN(CSc3ccccc3)CC2)cc1 | > 30.2 µM | 5.75 µM |  |
| Cc1ccc2c(c1)N=C(Nc1ccccc1)N=S2(C)=O (configuration not stated) |  |  | inactive |
| C/C(=C/CNc1ncnc2c1ncn2CCC#N)CO | > 200 µM | > 200 µM |  |
| S=c1[nH]nc2ccccn12 | > 200 µM | > 200 µM |  |
| CC1=NN2C(c3ccc([N+](=O)[O-])cc3)=CSC2=NC(C)(C)C1 | > 158 µM | > 158 µM |  |
| C#CCOCC12C=CC(O1)C1COC(=O)C12 (configuration not stated) | > 200 µM | > 200 µM |  |
| CC1=C(C(=O)Nc2ccccc2C)C(c2ccc([N+](=O)[O-])cc2)C(C(=O)Nc2ccccc2C)=C(C)N1 | > 10.5 µM | > 10.5 µM |  |
| Cc1ccc(N2C=[N+](C)c3ccc(C)cc3C2)cc1 | > 200 µM | 33.9 µM |  |
| CCC1(O)C(=O)OCc2c1cc1n(c2=O)Cc2cc3ccc(CO)cc3nc2-1 (configuration not stated) | > 10 µM | 1.51 µM |  |
| Cc1ccc2c(c1)C(=O)c1[nH]c3ccc(F)cc3c1CO2 | > 200 µM | > 200 µM |  |
| CC1CC(C)(C)NCCNC(C)CC(C)(C)NCCN1 (configuration not stated) | 195 µM | > 200 µM |  |
| Cc1ccccc1C1=C/C(=C(\SS/C(C(=O)c2ccc(OCC(=O)O)c(Cl)c2Cl)=C2\C=C(c3ccccc3C)SS2)C(=O)c2ccc(OCC(=O)O)c(Cl)c2Cl)SS1 | > 26.9 µM | > 26.9 µM |  |
| NC12CC3CC(CC(C3)C1)C2 | > 200 µM | > 200 µM | inactive |
| O=[N+]([O-])c1cccc(-c2csc(N=Nc3c(O)[nH]c4ccccc34)n2)c1 | > 200 µM | > 200 µM |  |
| COC(=O)C1=C(C(=O)OC)N2c3ccccc3-n3c(-c4ccccc4)cc(OC)c3C2(C)C(C(=O)OC)=C1C(=O)OC (configuration not stated) | > 53.7 µM | > 53.7 µM |  |

| SMILES | EC50 | IC50 | outcome |
| --- | --- | --- | --- |
| CCC(C)/C(=C\C(=O)O)C(=O)O (configuration not stated) | > 200 µM | > 200 µM |  |
| CC(=O)OCC1OC(n2c3c(c(-c4ccco4)c(C#N)c2=S)CCC3)C(OC(C)=O)C(OC(C)=O)C1OC(C)=O (configuration not stated) | > 200 µM | 9.77 µM |  |
| CSC1=NNC(SC)=NN1 | > 200 µM | 0.708 µM |  |
| CC(C)=Cc1cc(C(=O)Nc2ccc(Cl)c(Cl)c2)nc(N)n1 | > 741 µM | 490 µM |  |
| COCCNC1CCC(=O)c2[nH]c3ccccc3c21 (configuration not stated) | > 200 µM | > 200 µM |  |
| CCOC(=O)C1=C(Nc2ccc(Br)cc2)OCC1=O |  |  | inactive |
| CCOC(=O)C1=NN(c2ccccc2)C(=O)/C1=C\N1C(=S)NC(=O)/C1=C\c1cccc([N+](=O)[O-])c1 | > 200 µM | 89.1 µM |  |
| C/C(CC(=O)Nc1cccc([N+](=O)[O-])c1)=N\NC(=O)CC#N | > 832 µM | 447 µM |  |
| O=c1[nH]c(=O)n(C2CCC(COP(=O)(O)O)O2)cc1Cc1ccccc1 (configuration not stated) | > 468 µM | > 468 µM |  |
| Cc1cccc(NC(=O)c2cc3cc(N=Nc4ccccc4Cl)ccc3oc2=O)c1 | > 24 µM | > 24 µM |  |
| S=C1N=C(Cl)/C(=C\c2ccccc2)N1 | > 200 µM | > 200 µM |  |
| CCOC(=O)C[C@@H](C)[C@]1(C(=O)OC)CCCC1=O | > 708 µM | > 708 µM |  |
| O=C(NCCNCCCNC(=O)c1cc(-c2ccccc2)nc2ccccc12)c1cccc(O)c1O | > 200 µM | 3.24 µM |  |
| Cc1cc(NC(=O)Nc2ccc(F)cc2)no1 | > 200 µM | > 200 µM |  |
| CCOC(=O)C(NNc1ccccc1)C(c1ccccc1)[P+](c1ccccc1)(c1ccccc1)c1ccccc1 (configuration not stated) | > 200 µM | 3.63 µM |  |
| C=CCN1C(=O)CS/C1=N\NC(=O)Cc1nc2ccccc2[nH]1 | > 275 µM | > 275 µM |  |
| C=CC1=C(C)C2=NC1=CC1=NC(=CC3=C(C)C4=C(O)C(C(=O)OC)C(=C5NC(=C2)C(C)C5CCC(=O)OC/C=C(\C)CCCC(C)CCCC(C)CCCC(C)C)C4=N3)C(CC)=C1C (configuration not stated) | > 100 µM | 2.14 µM |  |
| O=C1c2cccc3c2C(=O)c2c(cccc21)OCCOCCOCCOCCO3 |  |  | inactive |
| N#CC(C#N)=c1ccc(=C2NCC3CCCN23)cc1 (configuration not stated) |  |  | inactive |
| COc1ccc(C(C)(C)c2cc3c(cc2OC)OCO3)cc1 | > 45.7 µM | 0.0316 µM |  |
| CC(=O)N(CN1C(=O)CCC1C(=O)O)c1ccc(C)cc1 (configuration not stated) |  |  | inactive |

| SMILES | EC50 | IC50 | outcome |
| --- | --- | --- | --- |
| Cc1cccc(C)c1NC(=O)C(=O)CC(=O)c1cccc([N+](=O)[O-])c1 | > 525 µM | > 525 µM |  |
| CCOC(=O)C(CC(=O)OC)NC(=O)C(CC(=O)OC)NC(=O)C(CC(=O)OC)NC(=O)C(CC(=O)OC)NC(=O)OCc1ccccc1 (configuration not stated) (Cbz-D(OMe)D(OMe)D(OMe)D(OMe)-OEt; configuration not given here) | > 200 µM | > 200 µM |  |
| COCn1cnc2c(=O)n(-c3ccc(C)cc3)c(=S)n(-c3ccc(C)cc3)c21 | > 200 µM | 138 µM |  |
| O=c1[nH]ncc2c1nnn2C1CCC(CO)O1 (configuration not stated) | > 200 µM | > 200 µM |  |
| O=C(O)CCOCCCCCCCCCl |  |  | inactive |
| N#C[C@H](c1nc2ccccc2[nH]1)c1nc2ccccc2nc1Cl | > 200 µM | 11 µM |  |
| CSCCC(NP(=S)(c1ccccc1)c1ccccc1)C(=O)O (configuration not stated) | > 200 µM | > 200 µM |  |
| CC(=O)/C(=C/N1CCNC1=S)C(=O)Nc1ccc(Cl)cc1 |  |  | inactive |
| CCC(=O)c1ccc2c(c1)N(CCCN1CCN(CCO)CC1)c1ccccc1S2 | > 200 µM | 9.33 µM |  |
| O=c1[nH][nH]c(=O)n1Cc1ccccc1Cn1c(=O)[nH][nH]c1=O | > 100 µM | > 100 µM |  |
| O=C(c1ccc(Cl)cc1)c1cnc(Nc2ccccc2Cl)s1 | > 10.7 µM | > 10.7 µM |  |
| C/C(CC(O)(C(F)(F)Cl)C(F)(F)Cl)=N\Nc1ccccc1 | > 200 µM | 52.5 µM |  |
| S=C(Nc1ccc2c3c(cccc13)CC2)Nc1ccc2c3c(cccc13)CC2 | > 200 µM | 42.7 µM |  |
| COc1cc(/C=C2\C(=O)N(Cc3ccccc3)C(c3ccccc3)S2(=O)=O)cc(OC)c1OC (configuration not stated) | > 20 µM | 3.31 µM |  |
| CCOP(=O)(OCC)/C(C#N)=C/c1cccc(Br)c1 |  |  | inactive |
| O=C1OCCN1N1C(=O)CC2(CCN(Cc3ccccc3)CC2)C1=O | > 200 µM | > 200 µM |  |
| OC1=CN=C(c2ccccc2)Oc2ccccc21 | > 15.8 µM | > 15.8 µM |  |
| Nc1[nH]n(-c2ccccc2)c(=O)c1/C=N/C(=S)NC1CCCCC1 | > 100 µM | > 100 µM |  |
| CC(C)(C)C1CCC2c3c([nH]c4ccccc34)C3C(=O)N(c4ccc(Br)cc4)C(=O)C3C2C1 (configuration not stated) | > 14.5 µM | > 14.5 µM |  |
| CN(C)CCCOc1ccc(/C=C2/CCC/C(=C/c3ccc(OCCCN(C)C)cc3)C2=O)cc1 | > 15.1 µM | 1.05 µM |  |
| NC1=NS(=O)(=O)Nc2nc(-c3ccccc3)[nH]c21 | > 20 µM | > 20 µM |  |
